Source: US12247022B2, “Combinations for treatment of NASH/NAFLD and related diseases” (Pfizer Inc., priority 2018, dated 2025)

Key:
Assay type in all cases: in vivo, rat
[1] = test system: SREBP-1; test: Nuclear SREBP-1 localization in liver (Western blot, normalized to Histone 2B), Western diet fed rats; conditions: high dose (Compound A 10 mg/kg QD, Compound D 30 mg/kg BID); pooled liver samples per group
Procedure: A randomized, vehicle-controlled, 8-parallel arm study was conducted in male Sprague-Dawley rats (Charles River (Boston, MA)) to obtain circulating and hepatic TG levels. Standard laboratory conditions were used to house 96 rats (˜200 g); they were double housed and kept under 12:12-hour reverse light-dark schedule (lights off at 8:00 AM). Rats were randomized into chow or Western diet groups and dose groups upon arrival and were given a 14-day lead-in period on either standard rat chow or Western diet prior to the start of the study. Standard Laboratory Rodent chow diet, 5053, was from LabDiet (PMI, St Louis, Missouri). Western Diet, D12079Bi, was from Research Diets (New Brunswick, New Jersey). […]
Nuclear and Membrane fractions were prepared by ultracentrifugation using standard methods from a portion of the pulverized liver samples, that were pooled per treatment group. Samples from the nuclear extract and the membrane fractions were analyzed by Western blotting for SREBP1. […] Nuclear SREBP1 levels were quantified using relative units and normalized to Histone 2B to control for sample loss during the nuclear fractionation and gel loading.

[2] = test system: alpha smooth muscle actin (αSMA); test: Hepatic αSMA immunohistochemistry, CDAHFD fed rats; conditions: twice daily for 6 weeks; Compound A 5 mg/kg, Compound D 30 mg/kg, or co-administration; 12 weeks on CDAHFD
Procedure: (§1) A randomized, vehicle-controlled, 5-parallel arm study was conducted in male Wistar-Han rats (Charles River (Boston, MA)) fed a choline-deficient and high fat diet (CDAHFD) (Research diets; A16092003) to identify differences in improvements in markers of hepatic inflammation and fibrosis when administering either Compound A or Compound D alone as monotherapy or in combination. Standard laboratory conditions were used to house 60 rats (˜200 g); they were double housed and kept under 12:12-hour reverse light-dark schedule (lights off at 8:00 AM). Rats were fed choline deficient and high fat diet (CDAHFD) beginning 6-weeks prior to initiation of the study. Rats, randomized into 4 dosing groups (n=12/group), received twice daily administration of vehicle, Compound A (5 mg/kg) monotherapy, Compound D (30 mg/kg) monotherapy, or co-administration Compound A (5 mg/kg) and Compound D (30 mg/kg) for a period of 6-weeks. […] Histology was assessed following 6-weeks of drug administration which corresponded to 12 weeks on the CDAHFD. […]
(§2) Following the 12-weeks on CDAHFD, the animals were sacrificed by CO2 asphyxiation. […] A portion of the pulverized liver sample from each animal was processed and analyzed for gene expression markers of fibrogenesis. Rat taqman probes against […]SMA and COL1A1 were all assessed using Actb as housekeeping gene on qPCR. […]

[3] = test system: Collagen; test: Hepatic Picrosirius red staining (collagen), CDAHFD fed rats; conditions: twice daily for 6 weeks; Compound A 5 mg/kg, Compound D 30 mg/kg, or co-administration; 12 weeks on CDAHFD
Procedure: as §1, §2

[4] = test system: alpha smooth muscle actin (αSMA); test: Hepatic αSMA gene expression (qPCR), CDAHFD fed rats; conditions: twice daily for 6 weeks, Compound A 5 mg/kg, Compound D 30 mg/kg, or co-administration, Actb
Procedure: as §1
Following the 12-weeks on CDAHFD, the animals were sacrificed by CO2 asphyxiation. […] A portion of the pulverized liver sample from each animal was processed and analyzed for gene expression markers of fibrogenesis. Rat taqman probes against […]SMA and COL1A1 were all assessed using Actb as housekeeping gene on qPCR.

[5] = test system: CDAHFD fed Male Wistar Hann rats; test: Liver stiffness by shearwave elastography, CDAHFD fed rats; conditions: twice daily for 6 weeks, Compound A 5 mg/kg, Compound D 30 mg/kg, or co-administration
Procedure: as §1, with “6-weeks. Animals (n=12) remaining on normal chow throughout the study and administered twice-daily vehicle were used as a control group. Blood samples were collected prior to starting compound administration and 3- and 6-week post compound administration for the assessment of circulating markers.” for “6-weeks.”

CCOc1cccnc1Oc1cncc(-c2ncc(C(=O)N[C@H]3CCOC3)cn2)c1 [Compound D, (S)-2-(5-((3-ethoxypyridin-2-yl)oxy)pyridin-3-yl)-N-(tetrahydrofuran-3-yl)pyrimidine-5-carboxamide]
nuclear localization of SREBP-1, relative to vehicle treated Western diet fed rats [1]: reduced SREBP-1 nuclear localization | reduction of liver αSMA staining [2]: 23% | reduction of Picosrius red (PSR) staining [3]: 20% | hepatic αSMA gene expression [4]: reduced | liver stiffness (shearwave elastography, kPa) [5]: reduced liver stiffness

COc1cc(C(=O)N2CCC3(CC2)CC(=O)c2c(cnn2C(C)C)C3)cc(-c2ccc(C(=O)O)cc2)n1 [Compound A, 4-(4-(1-isopropyl-7-oxo-1,4,6,7-tetrahydrospiro[indazole-5,4′-piperidine]-1′-carbonyl)-6-methoxypyridin-2-yl)benzoic acid]
nuclear localization of SREBP-1, relative to vehicle treated Western diet fed rats [1]: increased nuclear localization of SREBP-1 | reduction of liver αSMA staining [2]: 41% | reduction of Picosrius red (PSR) staining [3]: 26% | hepatic αSMA gene expression [4]: reduced | liver stiffness (shearwave elastography, kPa) [5]: reduced liver stiffness
